Experiment: mGlu5 Ca2+ Flux Assay: HEK 293A cells stably expressing rat mGlu5 were plated in black-walled, clear-bottomed, poly-D-lysine coated 384-well plates in 20 μL of assay medium (DMEM containing 10% dialyzed FBS, 20 mM HEPES, 100 units/mL penicillin/streptomycin plus 250 ng/mL Fungizone, and 1 mM sodium pyruvate) at a density of 20K cells/well. The cells were grown overnight at 37° C. in the presence of 5% CO2. The next day, medium was removed and the cells incubated with 20 μL of 2.3 μM Fluo-4, AM prepared as a 2.3 mM stock in DMSO and mixed in a 1:1 ratio with 10% (w/v) pluronic acid F-127 and diluted in assay buffer (Hank's balanced salt solution, 20 mM HEPES, and 2.5 mM probenecid) for 45 minutes at 37° C. Dye was removed, 20 μL of assay buffer was added, and the plate was incubated for 5 minutes at room temperature.

| Compound | IC50 (HEK293-A) | IC50 |
| --- | --- | --- |
| COc1ccc(N(C)Cc2cc3n(n2)CCN(c2ccc(OC)cc2)C3=O)cc1 | 2880 nM | – |
| Cc1cccc(NCc2cc3n(n2)[C@H](C)CN(c2ccc(F)cc2)C3=O)c1 | – | 1210 nM |
| COc1ccc(NCc2cc3n(n2)CCN(c2ccc(F)c(F)c2)C3=O)cc1 | 1470 nM | – |
| COc1ccc(N(C)Cc2cc3n(n2)CCN(c2c(F)cccc2F)C3=O)cc1 | 1020 nM | – |
| O=C1c2cc(CNc3ccc(OC(F)F)cc3)nn2CCN1c1ccc(F)cc1 | – | 334 nM |
| Cc1cccc(NCc2cc3n(n2)[C@@H](C)CN(c2ccc(F)cc2)C3=O)c1 | 1840 nM | – |
